# Test results from patent publication US7405317B2, “Phosphate-bearing prodrugs of sulfonyl hydrazines as hypoxia-selective antineoplastic agents” (priority 2004, dated 2008).
# Experiments:
# [1] = tested on: EMT-6 murine mammary carcinoma; format: in vivo, mice; conditions: EMT6/BLAB-c Mice; dose VNP40541 85-115 mpk, VNP40551 55-85 mpk
# Protocol: (§1) The anti-tumor effects of aforementioned prodrugs are evaluated in both solid and liquid tumor models, including the B16-F10 murine melanoma, HTB177 human lung carcinoma models, DLD1 human colon carcinoma, EMT-6 murine mammary gland carcinoma, L1210 murine leukemia, lymphoma, prostate cancer, pancreatic cancer, and head-and-neck cancer. The prodrugs are given intravenously, orally, or intraperitoneally at doses from 10 mg/kg to 2000 mg/kg; they are give at different dosing schedules such as 4 times daily, once daily, or once every several days for up to 60 doses. Testing tumor cells were implanted subcutaneously into mice, which were randomized into groups immediately after tumor cell implantation (Day 0). Mice were injected intraperitoneally (ip) with either a bolus injection of 0.1 mL PBS or drug. The treatment was carried out in a designed dosing schedule. Tumor measurement in three dimensions was determined once a week with the formula L×H×W/2, where L, H, and W represent length, height, and width, respectively.
# (§2) Efficacy of KS119 was studied in murine tumor model and human xenograft models. EMT-6 murine mammary carcinoma cells (3×10^5 cells/mouse) were implanted subcutaneously into Balb/c mice. H460 human lung carcinoma cells, HT29 human colon carcinoma cells and SHP77 human lung carcinoma cells were established as solid xenografts in nu/nu CD-1 mice and Scid/Beige mice with 7×10^7 cells/mouse, respectively. After implantation, tumors were allowed to grow to a size of 150 to 200 mm^3 before starting treatment with KS119. KS119 was formulated in a solvent containing polyethylene glycol 300 (PEG), ethyl alcohol, citric acid, and ascorbic acid.
# (§3) Efficacies of KS119W and KS119 were compared with equivalence molar doses in EMT-6 tumor and H460 tumor models. KS119W was formulated with 0.25M sodium bicarbonate solution. The treatment was started when tumors researched 150 to 200 mm^3, and lasted up to 2 weeks. KS119 at doses of 80 and 100 mg/kg and KS119W at doses of 97.6 and 121.3 mg/kg were daily administrated into mice via ip injection. […] To assess the toxicity of treatment, body weight and peripheral blood cell count were monitored after treatment.
# (§4) Combined therapy of KS119W with cytoxan (CTX) was evaluated by using KS119W at dose below the MTD in combination with nontoxic dose of CTX against EMT-6 murine mammary carcinoma and H460 human lung carcinoma in CD-1 nude mice. The tumors were allowed to grow to a size of approximately 200 mm^3. In H460 tumor model, the animals received either with 4 doses 180 mg/kg and 1 dose 240 mg/kg of KS119 or CTX at dose of 100 mg/kg per dose per animal, ip injecting the drugs on 15, 22, 27, 34 and 43 days after the tumor implantation. In the combination studies, CTX was given two hours after dosing KS119W.
# [2] = tested on: H460 human lung carcinoma; format: in vivo, mice; conditions: H460/Nude Mice; dose VNP40541 80-140 mpk, VNP40551 40-80 mpk
# Protocol: as §1, §2, §3, §4
# [3] = Short term stability as a function of pH and citrate buffer (HPLC); format: physicochemical; conditions: 20 mg/mL
# Protocol: The stabilities of VNP40541 were investigated. The sample (20 mg/mL) was dissolved in 20 mM citric acid and titrated to pH 2.0, pH 3.0, pH 4.0, pH 5.0, pH 6.0, and pH 7.0. To control for buffer catalysis, the drug was also titrated to pH 2.0, pH 5.0, and pH 6.0 in the absence of citrate. The samples were stored at 40° C. for 3 hours, 24 hours, and 3 days, and at room temperature for 24 hours, 3 days. Upon completion of each time point, samples were placed in a freezer at −15° C. Control samples of each preparation were also stored in the freezer. Each sample was analyzed by HPLC repetitively, at various time points, to determine the concentration of the respective drug.
# [4] = tested on: CHO-SCS-II (non-transfected parental line); experiment: Aerobic/hypoxic cell survival, parental CHO cells; format: cell-based; conditions: drug 10 μM
# Protocol: EMT6 or CHO (parental or human cytochrome P-450 reductase transfected) cells, seeded in glass milk dilution bottles, were gassed for 2 hours through a rubber septum fitted with 13 gauge (inflow) and 18 gauge (outflow) needles with a mixture of 5% CO2, oxygen at various concentrations, with the balance of the mixture made up of nitrogen, to establish various hypoxic conditions. Drugs were then injected without disrupting hypoxia. After two hours, cells were collected and plated in a clonogenic assay to determine the surviving fraction, compared to untreated controls.
# For in vitro analysis, KS119W must be converted to KS119OH (1) in an AP-catalyzed reaction shown above in FIG. 2, as the phosphorylated parent drug cannot cross cell membranes. KS119OH is then used in all subsequent in vitro studies shown in this section.
# Like KS119, cytochrome P-450 reductase can activate KS1190H under hypoxic conditions.
structure (smiles),measurement,setting,value
C[C@@H](OC(=O)N(N(CCCl)S(C)(=O)=O)S(C)(=O)=O)c1ccc([N+](=O)[O-])c(OP(=O)(O)O)c1 [VNP40541],Inhibition (%),[1],58-69%
same,Inhibition (%),[2],52-80%
same,"Assay (HPLC, relative to control samples stored at −15° C.)","[3]; pH 2.0, citrate 20 mM, 3 hrs 40° C.",98.8%
same,"Assay (HPLC, relative to control samples stored at −15° C.)","[3]; pH 2.0, citrate 20 mM, 24 hrs 40° C.",92.3%
same,"Assay (HPLC, relative to control samples stored at −15° C.)","[3]; pH 2.0, citrate 20 mM, 24 hrs Room Temp.",99.3%
same,"Assay (HPLC, relative to control samples stored at −15° C.)","[3]; pH 2.0, citrate None, 3 hrs 40° C.",98.9%
same,"Assay (HPLC, relative to control samples stored at −15° C.)","[3]; pH 2.0, citrate None, 24 hrs 40° C.",91.7%
same,"Assay (HPLC, relative to control samples stored at −15° C.)","[3]; pH 2.0, citrate None, 24 hrs Room Temp.",99.4%
same,"Assay (HPLC, relative to control samples stored at −15° C.)","[3]; pH 3.0, citrate 20 mM, 3 hrs 40° C.",98.9%
same,"Assay (HPLC, relative to control samples stored at −15° C.)","[3]; pH 3.0, citrate 20 mM, 24 hrs 40° C.",91.3%
same,"Assay (HPLC, relative to control samples stored at −15° C.)","[3]; pH 3.0, citrate 20 mM, 24 hrs Room Temp.",99.3%
same,"Assay (HPLC, relative to control samples stored at −15° C.)","[3]; pH 4.0, citrate 20 mM, 3 hrs 40° C.",99.8%
same,"Assay (HPLC, relative to control samples stored at −15° C.)","[3]; pH 4.0, citrate 20 mM, 24 hrs 40° C.",92.2%
same,"Assay (HPLC, relative to control samples stored at −15° C.)","[3]; pH 4.0, citrate 20 mM, 24 hrs Room Temp.",100.1%
same,"Assay (HPLC, relative to control samples stored at −15° C.)","[3]; pH 5.0, citrate 20 mM, 3 hrs 40° C.",98.8%
same,"Assay (HPLC, relative to control samples stored at −15° C.)","[3]; pH 5.0, citrate 20 mM, 24 hrs 40° C.",92.2%
same,"Assay (HPLC, relative to control samples stored at −15° C.)","[3]; pH 5.0, citrate 20 mM, 24 hrs Room Temp.",99.4%
same,"Assay (HPLC, relative to control samples stored at −15° C.)","[3]; pH 5.0, citrate None, 3 hrs 40° C.",99.4%
same,"Assay (HPLC, relative to control samples stored at −15° C.)","[3]; pH 5.0, citrate None, 24 hrs 40° C.",92.5%
same,"Assay (HPLC, relative to control samples stored at −15° C.)","[3]; pH 5.0, citrate None, 24 hrs Room Temp.",99.7%
same,"Assay (HPLC, relative to control samples stored at −15° C.)","[3]; pH 6.0, citrate 20 mM, 3 hrs 40° C.",99.0%
same,"Assay (HPLC, relative to control samples stored at −15° C.)","[3]; pH 6.0, citrate 20 mM, 24 hrs 40° C.",93.8%
same,"Assay (HPLC, relative to control samples stored at −15° C.)","[3]; pH 6.0, citrate 20 mM, 24 hrs Room Temp.",98.6%
same,"Assay (HPLC, relative to control samples stored at −15° C.)","[3]; pH 6.0, citrate None, 3 hrs 40° C.",99.3%
same,"Assay (HPLC, relative to control samples stored at −15° C.)","[3]; pH 6.0, citrate None, 24 hrs 40° C.",93.8%
same,"Assay (HPLC, relative to control samples stored at −15° C.)","[3]; pH 6.0, citrate None, 24 hrs Room Temp.",100.0%
same,"Assay (HPLC, relative to control samples stored at −15° C.)","[3]; pH 7.0, citrate 20 mM, 3 hrs 40° C.",99.6%
same,"Assay (HPLC, relative to control samples stored at −15° C.)","[3]; pH 7.0, citrate 20 mM, 24 hrs 40° C.",94.0%
same,"Assay (HPLC, relative to control samples stored at −15° C.)","[3]; pH 7.0, citrate 20 mM, 24 hrs Room Temp.",99.7%
same,Surviving fraction at 0.1% oxygen,[4]; 0.1% oxygen,0.04737
same,Surviving fraction in air,[4]; air,1.086
